Test system: Pseudomonas aeruginosa PAM1001
Experiment: microbe, parasite or virus in culture
Assay type: cell-based
Experimental: The activity of efflux pump inhibitors (EPI) in combination with fluoroquinolones, such as levofloxacin, is assessed by the checkerboard assay (Antimicrobial Combinations. In Antibiotics in Laboratory Medicine, Ed. Victor Lorian, M. D., Fourth edition, 1996, pp 333-338) using broth microdilution method performed as recommended by the NCCLS (National Committee for Clinical Laboratory Standards (NCCLS). 1997. Methods for Dilution of Antimicrobial Susceptibility Tests for Bacteria That Grow Aerobically--Fourth Edition; Approved Standard. NCCLS Document M7-A4, Vol 17 No.2). The test organism used is Pseudomonas aeruginosa PAM1001.
In this assay, multiple dilutions of two drugs, namely the EPI and levofloxacin, are being tested, alone and in combination, at concentrations equal to, above and below their respective minimal inhibitory concentrations (MICs).
Stock solutions are further diluted, according to the needs of a particular assay, in Mueller Hinton Broth (MHB). Stock solution can be stored at -80° C. Quinolones are solubilized according to the instructions of the manufacturers, at a concentration of 1 mg/ml. They are then further diluted in MHB. Stock solution can be stored at -80° C.
The checkerboard assay is performed in microtiter plates. Levofloxacin is diluted in the x axis, each column containing a single concentration of levofloxacin. The EPI is diluted in the y axis, each row containing an equal concentration of EPI. The result of these manipulations is that each well of the microtiter plate contains a unique combination of concentrations of the two agents. Each EPI are tested independently.
The assay is performed in MHB with a final bacterial inoculum of 5×10^5 CFU/ml (from an early-log phase culture). Microtiter plates are incubated during 20 h at 35° C. and are read using a microtiterplate reader (Molecular Devices) at 650 nm as well as visual observation using a microtiterplate reading mirror.

[1] = Table 1, EPI Conc. μg/ml (number not given; column between 10 and 40 μg/ml)
[2] = Table 2, EPI Conc. μg/ml (number not given; column between 10 and 40 μg/ml)
[3] = Table 3, EPI Conc. μg/ml (number not given; column between 10 and 40 μg/ml)
[4] = Table 4, EPI Conc. μg/ml (number not given; column between 10 and 40 μg/ml)

| Substance | Levofloxacin MIC Against P. aeruginosa PAM1001 in Presence of Efflux Pump Inhibitor (EPI), Minimum Inhibitory Concentration (Table 1, EPI Conc. 0 μg/ml) [µg/mL] | Levofloxacin MIC Against P. aeruginosa PAM1001 in Presence of Efflux Pump Inhibitor (EPI), Minimum Inhibitory Concentration (Table 1, EPI Conc. 0.625 μg/ml) [µg/mL] | Levofloxacin MIC Against P. aeruginosa PAM1001 in Presence of Efflux Pump Inhibitor (EPI), Minimum Inhibitory Concentration (Table 1, EPI Conc. 5 μg/ml) [µg/mL] | Levofloxacin MIC Against P. aeruginosa PAM1001 in Presence of Efflux Pump Inhibitor (EPI), Minimum Inhibitory Concentration (Table 1, EPI Conc. 10 μg/ml) [µg/mL] | Levofloxacin MIC Against P. aeruginosa PAM1001 in Presence of Efflux Pump Inhibitor (EPI), Minimum Inhibitory Concentration (Table 1, EPI Conc. 40 μg/ml) [µg/mL] | Levofloxacin MIC Against P. aeruginosa PAM1001 in Presence of Efflux Pump Inhibitor (EPI), Minimum Inhibitory Concentration [1] [µg/mL] | Levofloxacin MIC Against P. aeruginosa PAM1001 in Presence of Efflux Pump Inhibitor (EPI), Minimum Inhibitory Concentration (Table 2, EPI Conc. 0 μg/ml) [µg/mL] | Levofloxacin MIC Against P. aeruginosa PAM1001 in Presence of Efflux Pump Inhibitor (EPI), Minimum Inhibitory Concentration (Table 2, EPI Conc. 0.625 μg/ml) [µg/mL] | Levofloxacin MIC Against P. aeruginosa PAM1001 in Presence of Efflux Pump Inhibitor (EPI), Minimum Inhibitory Concentration (Table 2, EPI Conc. 5 μg/ml) [µg/mL] | Levofloxacin MIC Against P. aeruginosa PAM1001 in Presence of Efflux Pump Inhibitor (EPI), Minimum Inhibitory Concentration (Table 2, EPI Conc. 10 μg/ml) [µg/mL] | Levofloxacin MIC Against P. aeruginosa PAM1001 in Presence of Efflux Pump Inhibitor (EPI), Minimum Inhibitory Concentration (Table 2, EPI Conc. 40 μg/ml) [µg/mL] | Levofloxacin MIC Against P. aeruginosa PAM1001 in Presence of Efflux Pump Inhibitor (EPI), Minimum Inhibitory Concentration [2] [µg/mL] | Levofloxacin MIC Against P. aeruginosa PAM1001 in Presence of Efflux Pump Inhibitor (EPI), Minimum Inhibitory Concentration (Table 3, EPI Conc. 0 μg/ml) [µg/mL] | Levofloxacin MIC Against P. aeruginosa PAM1001 in Presence of Efflux Pump Inhibitor (EPI), Minimum Inhibitory Concentration (Table 3, EPI Conc. 0.625 μg/ml) [µg/mL] | Levofloxacin MIC Against P. aeruginosa PAM1001 in Presence of Efflux Pump Inhibitor (EPI), Minimum Inhibitory Concentration (Table 3, EPI Conc. 5 μg/ml) [µg/mL] | Levofloxacin MIC Against P. aeruginosa PAM1001 in Presence of Efflux Pump Inhibitor (EPI), Minimum Inhibitory Concentration (Table 3, EPI Conc. 10 μg/ml) [µg/mL] | Levofloxacin MIC Against P. aeruginosa PAM1001 in Presence of Efflux Pump Inhibitor (EPI), Minimum Inhibitory Concentration (Table 3, EPI Conc. 40 μg/ml) [µg/mL] | Levofloxacin MIC Against P. aeruginosa PAM1001 in Presence of Efflux Pump Inhibitor (EPI), Minimum Inhibitory Concentration [3] [µg/mL] | Levofloxacin MIC Against P. aeruginosa PAM1001 in Presence of Efflux Pump Inhibitor (EPI), Minimum Inhibitory Concentration (Table 4, EPI Conc. 0 μg/ml) [µg/mL] | Levofloxacin MIC Against P. aeruginosa PAM1001 in Presence of Efflux Pump Inhibitor (EPI), Minimum Inhibitory Concentration (Table 4, EPI Conc. 0.625 μg/ml) [µg/mL] | other results |
| --- | --- | --- | --- | --- | --- | --- | --- | --- | --- | --- | --- | --- | --- | --- | --- | --- | --- | --- | --- | --- | --- |
| D-Ornithyl-β-(N-4-methylphenethyl)alanine quinoline-3-amide [Compound 32 (Table 3)] | 4 | 4 | 1 | 0.25 | 0.25 | 0.25 | 4 | 4 | 2 | 0.50 | 0.06 | 0.50 | 4 | 4 | 0.25 | 0.06 | 0.015 | 0.03 | 4 | 4 | Levofloxacin MIC Against P. aeruginosa PAM1001 in Presence of Efflux Pump Inhibitor (EPI), Minimum Inhibitory Concentration (Table 2, EPI Conc. […]): 4 µg/mL; Levofloxacin MIC Against P. aeruginosa PAM1001 in Presence of Efflux Pump Inhibitor (EPI), Minimum Inhibitory Concentration (Table 4, EPI Conc. 5 μg/ml): 1 µg/mL; Levofloxacin MIC Against P. aeruginosa PAM1001 in Presence of Efflux Pump Inhibitor (EPI), Minimum Inhibitory Concentration (Table 4, EPI Conc. 10 μg/ml): 0.06 µg/mL; Levofloxacin MIC Against P. aeruginosa PAM1001 in Presence of Efflux Pump Inhibitor (EPI), Minimum Inhibitory Concentration (Table 4, EPI Conc. 40 μg/ml): 0.06 µg/mL; Levofloxacin MIC Against P. aeruginosa PAM1001 in Presence of Efflux Pump Inhibitor (EPI), Minimum Inhibitory Concentration [4]: 0.06 µg/mL |
| D-Ornithyl-β-[N-(ethylthioethyl)]alanine 2-naphthylamide [Compound 42 (Table 3)] | 4 | 4 | 4 | 1 | 0.008 | 0.06 | 4 | 4 | 0.25 | 0.03 | 0.06 | 0.03 | 4 | 4 | 2 | 0.25 | 0.125 | 0.125 | 4 | 4 | Levofloxacin MIC Against P. aeruginosa PAM1001 in Presence of Efflux Pump Inhibitor (EPI), Minimum Inhibitory Concentration (Table 1, EPI Conc. […]): 4 µg/mL; Levofloxacin MIC Against P. aeruginosa PAM1001 in Presence of Efflux Pump Inhibitor (EPI), Minimum Inhibitory Concentration (Table 3, EPI Conc. […]): 4 µg/mL; Levofloxacin MIC Against P. aeruginosa PAM1001 in Presence of Efflux Pump Inhibitor (EPI), Minimum Inhibitory Concentration (Table 4, EPI Conc. 5 μg/ml): 2 µg/mL; Levofloxacin MIC Against P. aeruginosa PAM1001 in Presence of Efflux Pump Inhibitor (EPI), Minimum Inhibitory Concentration (Table 4, EPI Conc. 10 μg/ml): 1 µg/mL; Levofloxacin MIC Against P. aeruginosa PAM1001 in Presence of Efflux Pump Inhibitor (EPI), Minimum Inhibitory Concentration (Table 4, EPI Conc. 40 μg/ml): 0.03 µg/mL; Levofloxacin MIC Against P. aeruginosa PAM1001 in Presence of Efflux Pump Inhibitor (EPI), Minimum Inhibitory Concentration (Table 4, EPI Conc. […]): 4 µg/mL; Levofloxacin MIC Against P. aeruginosa PAM1001 in Presence of Efflux Pump Inhibitor (EPI), Minimum Inhibitory Concentration [4]: 0.125 µg/mL |
| Phenylalanyl-Nα -methylornithine 2-(naphthylmethyl)amide [Compound 17 (Table 1)] | 4 | 4 | 0.25 | 0.125 | 0.125 | 0.06 | 4 | 4 | 4 | 2 | 0.03 | 0.50 | 4 | 4 | 4 | 2 | 0.25 | 1 | 4 | 4 | Levofloxacin MIC Against P. aeruginosa PAM1001 in Presence of Efflux Pump Inhibitor (EPI), Minimum Inhibitory Concentration (Table 2, EPI Conc. […]): 4 µg/mL; Levofloxacin MIC Against P. aeruginosa PAM1001 in Presence of Efflux Pump Inhibitor (EPI), Minimum Inhibitory Concentration (Table 3, EPI Conc. […]): 4 µg/mL; Levofloxacin MIC Against P. aeruginosa PAM1001 in Presence of Efflux Pump Inhibitor (EPI), Minimum Inhibitory Concentration (Table 4, EPI Conc. 5 μg/ml): 0.50 µg/mL; Levofloxacin MIC Against P. aeruginosa PAM1001 in Presence of Efflux Pump Inhibitor (EPI), Minimum Inhibitory Concentration (Table 4, EPI Conc. 10 μg/ml): 0.125 µg/mL; Levofloxacin MIC Against P. aeruginosa PAM1001 in Presence of Efflux Pump Inhibitor (EPI), Minimum Inhibitory Concentration (Table 4, EPI Conc. 40 μg/ml): 0.125 µg/mL; Levofloxacin MIC Against P. aeruginosa PAM1001 in Presence of Efflux Pump Inhibitor (EPI), Minimum Inhibitory Concentration [4]: 0.125 µg/mL |
